Data published in publication PMC9537572, “Elucidation of the binding mechanism of astragaloside IV derivative with human serum albumin and its cardiotoxicity in zebrafish embryos” (Frontiers in Pharmacology, 2022).
Values joined by “and” are separate entries in the source; they are usually repeats but may differ in a detail not shown here. Equal values may be shown once.

Test system: zebrafish
Test: Arachidonic acid-induced thrombosis in zebrafish
Format: in vivo
Settings: for Staining intensity of cardiac red blood cells (pixels) (mean ± se): 3 h pretreatment, arachidonic acid 1.5 h, n = 10; for Antithrombotic effect (%): vs. model group, arachidonic acid-induced thrombosis
Procedure: A total of 270 melanin allele mutant translucent albino strain zebrafish at 3 dpf were randomly selected, with 30 zebrafish per well in six-well plates. The concentrations of LS-102 were 6.25, 12.5, 25, 50, and 100 µg/ml, while that of AGS IV was 100 µg/ml, and the positive control drug aspirin was 25 µg/ml. After treatment with LS-102 and AGS IV for 3 h, arachidonic acid aqueous solution was administered for 1.5 h to induce a thrombosis model in zebrafish in all experimental groups except the normal group. After staining with o-anisidine, zebrafish were randomly selected from each experimental group and observed under a dissecting microscope and photographed. Data were collected to qualitatively evaluate thrombosis in zebrafish, and the intensity of cardiac erythrocyte staining (length of venous thrombus vs. number of cardiac erythrocytes) in zebrafish was analyzed and counted to establish, the preventive effect of LS-102 and AGS IV with aspirin on thrombosis in zebrafish. The formula was calculated as follows:
Thromboprophylactic effect (%) = S (drug administration group)−S (model group)/S (nomal control group)−S (model group)×100%

What does the source list for `CC(C)(O)C1CCC(C)(C2C(O)CC3(C)C4CC(OC5OC(C(=O)O)C(O)C(O)C5O)C5C(C)(C)C(OC6OCC(O)C(O)C6O)CCC56CC46CCC23C)O1` (stereo not shown) [LS-102, astragalosidic acid]?
Staining intensity of cardiac red blood cells (pixels) (mean ± se) (6.25 µg/ml): 1280 pixels and 1280 ± 119 pixels; Antithrombotic effect (%) (6.25 µg/ml): −13%; Staining intensity of cardiac red blood cells (pixels) (mean ± se) (12.5 µg/ml): 1521 pixels and 1521 ± 72 pixels; Antithrombotic effect (%) (12.5 µg/ml): 14%; Staining intensity of cardiac red blood cells (pixels) (mean ± se) (25 µg/ml): 1597 pixels and 1597 ± 65 pixels; Antithrombotic effect (%) (25 µg/ml): 22%; Staining intensity of cardiac red blood cells (pixels) (mean ± se) (50 µg/ml): 1796 pixels and 1796 ± 54 pixels; Antithrombotic effect (%) (50 µg/ml): 44%; Staining intensity of cardiac red blood cells (pixels) (mean ± se) (100 µg/ml): 1950 pixels and 1950 ± 33 pixels; Antithrombotic effect (%) (100 µg/ml): 61%
